Where “and” joins values, the source holds several entries; their conditions need not be identical. Equal values may be shown once. Records with an inconclusive call do not appear.
Test system: CD8F1 mice, subcutaneous mammary adenocarcinoma, T/C%
Experiment: NCI In Vivo Anticancer Drug Screen. Data for tumor model Mammary Adenocarcinoma CD8F1 (subcutaneous) in CD8F1
Settings: higher = larger tumour
How it was run: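 Antitumor activity is assessed in transplantable-tumor mice by comparing the treated group with a vehicle-treated control group. Survival or tumor size serves as the measure, reported as T divided by C.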

[1] = endpoint: median tumor weight change, dose: 125.0 mg/kg/injection, schedule: Q01DX001 (ip), vehicle: saline
[2] = endpoint: median tumor weight (est.), dose: 6.25 mg/kg/injection, schedule: Q07DX005 (ip), vehicle: Klucel (hydroxypropylcellulose) (HPC)
[3] = endpoint: median tumor weight (est.), dose: 12.5 mg/kg/injection, schedule: Q07DX005 (ip), vehicle: Klucel (hydroxypropylcellulose) (HPC)
[4] = endpoint: median tumor weight (est.), dose: 25.0 mg/kg/injection, schedule: Q07DX005 (ip), vehicle: Klucel (hydroxypropylcellulose) (HPC)
[5] = endpoint: median tumor weight (est.), dose: 50.0 mg/kg/injection, schedule: Q07DX005 (ip), vehicle: Klucel (hydroxypropylcellulose) (HPC)
[6] = endpoint: median tumor weight (est.), dose: 100.0 mg/kg/injection, schedule: Q07DX005 (ip), vehicle: Klucel (hydroxypropylcellulose) (HPC)

O=C1C=C2C(=CCOC2O)O1 (stereo not drawn)
T/C (endpoint: median tumor weight (est.), dose: 0.5 mg/kg/injection, schedule: Q07DX005 (ip), vehicle: Klucel (hydroxypropylcellulose) (HPC)): 36 % of control | T/C (endpoint: median tumor weight (est.), dose: 1.0 mg/kg/injection, schedule: Q07DX005 (ip), vehicle: Klucel (hydroxypropylcellulose) (HPC)): 25 % of control | T/C (endpoint: median tumor weight (est.), dose: 1.5 mg/kg/injection, schedule: Q07DX005 (ip), vehicle: saline): 153 % of control | T/C (endpoint: median tumor weight (est.), dose: 2.0 mg/kg/injection, schedule: Q07DX005 (ip), vehicle: Klucel (hydroxypropylcellulose) (HPC)): 25 % of control | T/C (endpoint: median tumor weight (est.), dose: 3.0 mg/kg/injection, schedule: Q07DX005 (ip), vehicle: saline): 87 % of control | T/C (endpoint: median tumor weight (est.), dose: 4.0 mg/kg/injection, schedule: Q07DX005 (ip), vehicle: Klucel (hydroxypropylcellulose) (HPC)): 50 % of control | T/C (endpoint: median tumor weight change, dose: 5.0 mg/kg/injection, schedule: Q01DX001 (ip), vehicle: Klucel (hydroxypropylcellulose) (HPC)): 98 % of control

COC(=O)C[C@](O)(CCC(C)(C)O)C(=O)O[C@@H]1C(OC)=C[C@]23CCCN2CCc2cc4c(cc2[C@H]13)OCO4
T/C (endpoint: median tumor weight change, dose: 1.25 mg/kg/injection, schedule: Q01DX001 (ip), vehicle: saline): 80 % of control and 96 % of control | T/C (endpoint: median tumor weight change, dose: 2.5 mg/kg/injection, schedule: Q01DX001 (ip), vehicle: saline): 89 % of control and 94 % of control | T/C (endpoint: median tumor weight change, dose: 10.0 mg/kg/injection, schedule: Q01DX001 (ip), vehicle: saline): 68 % of control

CC(=O)OC1COC(NC(=O)N(CCCl)N=O)C(OC(C)=O)C1OC(C)=O (stereo not drawn)
T/C (endpoint: median tumor weight (est.), dose: 1.5 mg/kg/injection, schedule: Q07DX004 (ip), vehicle: saline with Tween-80): 32 % of control | T/C (endpoint: median tumor weight (est.), dose: 3.0 mg/kg/injection, schedule: Q07DX004 (ip), vehicle: saline with Tween-80): 103 % of control | T/C (endpoint: median tumor weight (est.), dose: 6.0 mg/kg/injection, schedule: Q07DX004 (ip), vehicle: saline with Tween-80): 35 % of control | T/C (endpoint: median tumor weight (est.), dose: 6.0 mg/kg/injection, schedule: Q07DX005 (ip), vehicle: saline with Tween-80): 103 % of control | T/C (endpoint: median tumor weight (est.), dose: 12.0 mg/kg/injection, schedule: Q07DX005 (ip), vehicle: saline with Tween-80): 68 % of control | T/C (endpoint: median tumor weight (est.), dose: 24.0 mg/kg/injection, schedule: Q07DX005 (ip), vehicle: saline with Tween-80): 46 % of control

Nc1nc(N)c2c(ccc3c2ccn3Cc2cccc([N+](=O)[O-])c2)n1
T/C (endpoint: median tumor weight change, dose: 7.75 mg/kg/injection, schedule: Q01DX001 (ip), vehicle: saline with Tween-80): 66 % of control | T/C (endpoint: median tumor weight change, dose: 8.0 mg/kg/injection, schedule: Q01DX001 (ip), vehicle: saline with Tween-80): 56 % of control | T/C (endpoint: median tumor weight change, dose: 16.0 mg/kg/injection, schedule: Q01DX001 (ip), vehicle: saline with Tween-80): 67 % of control

NNC(=O)c1ccncc1
T/C (endpoint: median tumor weight change, dose: 62.0 mg/kg/injection, schedule: Q01DX001 (ip), vehicle: saline): 78 % of control | T/C [1]: 70 % of control

CCCCCCC1C=Cc2ccccc21 (stereo not drawn)
T/C [2]: 65 % of control | T/C [3]: 61 % of control | T/C [4]: 84 % of control | T/C [5]: 86 % of control | T/C [6]: 66 % of control

C[CH2][Sn]([CH2]C)([O]S(C)(=O)=O)[O]S(C)(=O)=O
T/C (endpoint: median tumor weight change, dose: 3.9 mg/kg/injection, schedule: Q01DX001 (ip), vehicle: saline): 88 % of control | T/C (endpoint: median tumor weight change, dose: 7.81 mg/kg/injection, schedule: Q01DX001 (ip), vehicle: saline): 60 % of control | T/C (endpoint: median tumor weight change, dose: 15.62 mg/kg/injection, schedule: Q01DX001 (ip), vehicle: saline): 103 % of control

C1CC[N-]CC1.C1CC[N-]CC1.C1CC[N-]CC1.[Cl][Rh]([Cl])[Cl]
T/C (endpoint: median tumor weight (est.), dose: 6.25 mg/kg/injection, schedule: Q07DX005 (ip), vehicle: saline): 112 % of control | T/C (endpoint: median tumor weight (est.), dose: 8.0 mg/kg/injection, schedule: Q07DX005 (ip), vehicle: saline): 118 % of control | T/C (endpoint: median tumor weight (est.), dose: 12.5 mg/kg/injection, schedule: Q07DX005 (ip), vehicle: saline): 100 % of control | T/C (endpoint: median tumor weight (est.), dose: 25.0 mg/kg/injection, schedule: Q07DX005 (ip), vehicle: saline): 73 % of control | T/C (endpoint: median tumor weight (est.), dose: 32.0 mg/kg/injection, schedule: Q07DX005 (ip), vehicle: saline): 61 % of control | T/C (endpoint: median tumor weight (est.), dose: 50.0 mg/kg/injection, schedule: Q07DX005 (ip), vehicle: saline): 84 % of control | T/C (endpoint: median tumor weight (est.), dose: 64.0 mg/kg/injection, schedule: Q07DX005 (ip), vehicle: saline): 47 % of control | T/C (endpoint: median tumor weight (est.), dose: 100.0 mg/kg/injection, schedule: Q07DX005 (ip), vehicle: saline): 45 % of control

C[C@@H]1C[C@H]2[C@@H]3CCC4=CC(=O)C=C[C@]4(C)[C@@]3(F)[C@@H](O)C[C@]2(C)[C@@]1(O)C(=O)CO
T/C [2]: 88 % of control | T/C [3]: 32 % of control | T/C [4]: 31 % of control | T/C [5]: 12 % of control | T/C [6]: 7 % of control

C=CC(C)NC(=S)NNC(=S)NC (stereo not drawn)
T/C (endpoint: median tumor weight change, dose: 62.5 mg/kg/injection, schedule: Q01DX001 (ip), vehicle: saline + alcohol): 155 % of control | T/C (endpoint: median tumor weight change, dose: 125.0 mg/kg/injection, schedule: Q01DX001 (ip), vehicle: saline + alcohol): 164 % of control | T/C (endpoint: median tumor weight change, dose: 250.0 mg/kg/injection, schedule: Q01DX001 (ip), vehicle: saline + alcohol): 119 % of control | T/C (endpoint: median tumor weight change, dose: 500.0 mg/kg/injection, schedule: Q01DX001 (ip), vehicle: saline + alcohol): 82 % of control

COc1cc(NCc2ccc3nc(N)nc(N)c3c2C)cc(OC)c1OC (tested in a mixture with another compound)
T/C (endpoint: median tumor weight (est.), dose: 32.0 mg/kg/injection, schedule: Q04DX007 (ip), vehicle: water): 87 % of control | T/C (endpoint: median tumor weight (est.), dose: 46.0 mg/kg/injection, schedule: Q07DX005 (ip), vehicle: water): 24 % of control | T/C (endpoint: median tumor weight (est.), dose: 47.4 mg/kg/injection, schedule: Q04DX007 (ip), vehicle: water): 35 % of control | T/C (endpoint: median tumor weight (est.), dose: 70.0 mg/kg/injection, schedule: Q07DX005 (ip), vehicle: water): 27 % of control | T/C (endpoint: median tumor weight (est.), dose: 71.1 mg/kg/injection, schedule: Q04DX007 (ip), vehicle: water): 113 % of control | T/C (endpoint: median tumor weight (est.), dose: 105.0 mg/kg/injection, schedule: Q07DX005 (ip), vehicle: water): 24 % of control | T/C (endpoint: median tumor weight (est.), dose: 106.7 mg/kg/injection, schedule: Q04DX007 (ip), vehicle: water): 42 % of control | T/C (endpoint: median tumor weight (est.), dose: 157.0 mg/kg/injection, schedule: Q07DX005 (ip), vehicle: water): 13 % of control | T/C (endpoint: median tumor weight (est.), dose: 160.0 mg/kg/injection, schedule: Q04DX007 (ip), vehicle: water): 32 % of control

CN(C)N=Nc1cccc(C(N)=O)c1
T/C (endpoint: median tumor weight (est.), dose: 20.0 mg/kg/injection, schedule: Q07DX005 (ip), vehicle: Klucel (hydroxypropylcellulose) (HPC)): 80 % of control | T/C (endpoint: median tumor weight (est.), dose: 160.0 mg/kg/injection, schedule: Q07DX005 (ip), vehicle: Klucel (hydroxypropylcellulose) (HPC)): 54 % of control

CCN1/C(=C/C=C/C=C\C=C\c2sc3ccc4ccccc4c3[n+]2CC)Sc2ccc3ccccc3c21
T/C (endpoint: median tumor weight change, dose: 25.0 mg/kg/injection, schedule: Q01DX001 (ip), vehicle: saline with Tween-80): 70 % of control and 76 % of control | T/C (endpoint: median tumor weight change, dose: 100.0 mg/kg/injection, schedule: Q01DX001 (ip), vehicle: saline with Tween-80): 32 % of control and 53 % of control | T/C (endpoint: median tumor weight change, dose: 200.0 mg/kg/injection, schedule: Q01DX001 (ip), vehicle: saline with Tween-80): 69 % of control

COc1ccc(S(=O)(=O)N=N/C=C2\C=CC=CN2O)cc1OC
T/C (endpoint: median tumor weight change, dose: 31.25 mg/kg/injection, schedule: Q01DX001 (ip), vehicle: saline with Tween-80): 60 % of control | T/C (endpoint: median tumor weight change, dose: 62.5 mg/kg/injection, schedule: Q01DX001 (ip), vehicle: saline with Tween-80): 87 % of control | T/C (endpoint: median tumor weight change, dose: 250.0 mg/kg/injection, schedule: Q01DX001 (ip), vehicle: saline with Tween-80): 106 % of control

CCC(/C=C/C1OC(=O)C=CC1C)=C\C(C)C/C=C/C(C)=C/C(C)C(=O)C(C)C(O)C(C)C/C(C)=C/C(=O)O (stereo not drawn)
T/C (endpoint: median tumor weight change, dose: 200.0 mg/kg/injection, schedule: Q01DX001 (ip), vehicle: saline + alcohol): 56 % of control | T/C (endpoint: median tumor weight change, dose: 400.0 mg/kg/injection, schedule: Q01DX001 (ip), vehicle: saline + alcohol): 49 % of control | T/C (endpoint: median tumor weight change, dose: 800.0 mg/kg/injection, schedule: Q01DX001 (ip), vehicle: saline + alcohol): 56 % of control | T/C (endpoint: median tumor weight change, dose: 1600.0 mg/kg/injection, schedule: Q01DX001 (ip), vehicle: saline + alcohol): 75 % of control | T/C (endpoint: median tumor weight change, dose: 3200.0 mg/kg/injection, schedule: Q01DX001 (ip), vehicle: saline + alcohol): 61 % of control

CC(C)NCC(O)COc1ccc(O)c(O)c1 (stereo not drawn)
T/C (endpoint: median tumor weight change, dose: 1.5 mg/kg/injection, schedule: Q01DX001 (ip), vehicle: saline): 84 % of control | T/C (endpoint: median tumor weight change, dose: 6.0 mg/kg/injection, schedule: Q01DX001 (ip), vehicle: saline): 89 % of control and 105 % of control | T/C (endpoint: median tumor weight change, dose: 12.0 mg/kg/injection, schedule: Q01DX001 (ip), vehicle: saline): 72 % of control and 97 % of control | T/C (endpoint: median tumor weight change, dose: 24.0 mg/kg/injection, schedule: Q01DX001 (ip), vehicle: saline): 102 % of control | T/C [1]: 77 % of control and 96 % of control

— PubChem BioAssay AID220 (DTP/NCI, 2004)
